Data taken from patent US20260138976A1 (Hoffmann-La Roche Inc., priority 2022, published 2026).

Columns and labels:
[1] = molecular target: T1, DGKα (hDGKalpha(1-735)-N-His) (Homo sapiens, UniProt P23743); test: In vitro DGK inhibition assay, DGKalpha ADP Glo (in house); type: biochemical; conditions: 4 nM DGKα, 25 μM ATP, 125 uM DLG in liposomes, 1 hour reaction
T1 construct: hDGKalpha(1-735)-N-His; His (N); made in house; host or cells: Sf21 insect cells (baculovirus)
Procedure, shortened: (§1)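 ADP-Glo luminescence measured ADP formed over 1 h by Sf21-expressed full-length human enzymes: DGKα at 4 nM with 25 µM ATP, DGKζ at 2 nM with 50 µM ATP, both on 125 µM DLG in PS/PC liposomes. Dose–response used 11 threefold dilutions at 2% final DMSO.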

[2] = molecular target: T2, DGKζ (hDGKzeta(1-928)-N-His) (Homo sapiens, UniProt Q13574); test: In vitro DGK inhibition assay, DGKzeta ADP Glo (in house); type: biochemical; conditions: 2 nM DGKζ, 50 μM ATP, 125 uM DLG in liposomes, 1 hour reaction
T2 construct: hDGKzeta(1-928)-N-His; His (N); made in house; host or cells: Sf21 insect cells (baculovirus)
Procedure, shortened: as §1

primary human T-cells = test: Proliferation assay (5 days, CellTiter-Glo, CD3-stimulated T-cells); type: cell-based; conditions: for Emax proliferation (% activation): CD3 condition, normalised to DMSO (neutral) and 20 μM reference compound A1 = 100%; for EC50: Homo sapiens, T-cell, 120 h, CD3-stimulated primary human T-cells, 5 days, CellTiter-Glo, fitted sigmoidal curve, read-out: Tcell Proliferation CD3 EC50
Procedure, shortened: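 Proliferation read-out: ATP luminescence (CellTiter-Glo 2.0) at day 5 in expanded primary human T-cells on CD3 antibody-coated plates, with PBS-only plates as a counter screen. Compounds in 5–6 pt series (factor 3.333, top 20 or 10 μM final). Values are normalized to DMSO (neutral) and 20 μM reference A1 (100%), from sigmoidal fits.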

T1 sequence (P23743 whole entry): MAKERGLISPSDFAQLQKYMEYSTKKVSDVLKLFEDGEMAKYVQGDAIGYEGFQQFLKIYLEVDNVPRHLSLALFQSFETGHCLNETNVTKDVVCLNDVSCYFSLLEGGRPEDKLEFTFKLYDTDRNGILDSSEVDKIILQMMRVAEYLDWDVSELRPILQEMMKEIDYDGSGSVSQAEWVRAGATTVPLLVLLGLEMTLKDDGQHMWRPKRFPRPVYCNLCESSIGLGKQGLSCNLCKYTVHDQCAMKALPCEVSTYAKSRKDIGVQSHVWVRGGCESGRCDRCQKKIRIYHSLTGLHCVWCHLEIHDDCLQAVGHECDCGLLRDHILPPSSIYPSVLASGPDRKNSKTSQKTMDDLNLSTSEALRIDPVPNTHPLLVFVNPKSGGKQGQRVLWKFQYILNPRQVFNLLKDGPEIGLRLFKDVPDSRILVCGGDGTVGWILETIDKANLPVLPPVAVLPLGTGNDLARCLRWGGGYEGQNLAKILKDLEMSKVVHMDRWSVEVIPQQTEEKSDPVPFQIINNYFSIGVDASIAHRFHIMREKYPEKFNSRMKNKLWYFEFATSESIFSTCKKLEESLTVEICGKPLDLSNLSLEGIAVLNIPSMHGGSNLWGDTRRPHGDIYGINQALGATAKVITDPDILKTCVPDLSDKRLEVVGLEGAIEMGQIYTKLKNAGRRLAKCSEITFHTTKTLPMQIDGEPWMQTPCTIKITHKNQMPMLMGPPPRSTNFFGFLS
T2 sequence (Q13574 whole entry): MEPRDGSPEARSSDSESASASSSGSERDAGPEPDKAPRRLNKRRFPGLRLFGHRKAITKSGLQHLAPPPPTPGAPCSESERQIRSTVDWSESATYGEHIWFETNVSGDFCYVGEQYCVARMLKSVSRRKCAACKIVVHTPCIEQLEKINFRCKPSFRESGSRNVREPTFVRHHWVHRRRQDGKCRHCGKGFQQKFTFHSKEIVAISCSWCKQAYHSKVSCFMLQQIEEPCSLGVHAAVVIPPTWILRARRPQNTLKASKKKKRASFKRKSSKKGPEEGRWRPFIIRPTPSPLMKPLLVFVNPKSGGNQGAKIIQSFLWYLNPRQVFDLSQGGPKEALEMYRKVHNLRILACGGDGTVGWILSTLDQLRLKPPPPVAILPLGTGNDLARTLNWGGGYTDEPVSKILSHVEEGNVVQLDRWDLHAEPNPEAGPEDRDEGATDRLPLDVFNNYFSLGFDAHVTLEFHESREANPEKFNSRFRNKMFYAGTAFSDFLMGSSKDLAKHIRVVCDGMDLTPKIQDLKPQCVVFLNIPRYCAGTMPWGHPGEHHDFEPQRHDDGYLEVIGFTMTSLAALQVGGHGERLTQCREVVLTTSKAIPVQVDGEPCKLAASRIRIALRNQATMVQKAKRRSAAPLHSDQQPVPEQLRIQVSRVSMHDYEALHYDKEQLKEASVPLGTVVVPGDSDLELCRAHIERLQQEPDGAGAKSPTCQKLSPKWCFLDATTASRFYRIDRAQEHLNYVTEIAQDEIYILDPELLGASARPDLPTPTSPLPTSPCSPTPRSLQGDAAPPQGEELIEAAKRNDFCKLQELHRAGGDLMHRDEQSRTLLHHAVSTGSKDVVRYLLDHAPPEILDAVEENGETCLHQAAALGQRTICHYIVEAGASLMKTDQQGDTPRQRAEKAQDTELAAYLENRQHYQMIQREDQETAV

CC(C)(C#N)c1nnc(-c2ccc3c(c2)N(Cc2ccc(-n4nnc(C(F)(F)F)n4)cc2)C(=O)[C@@H](N)CS3(=O)=O)o1 [Example 120, 2-[5-[(3R)-3-amino-1,1,4-trioxo-5-[[4-[5-(trifluoromethyl)tetrazol-2-yl]phenyl]methyl]-2,3-dihydro-1λ^6,5-benzothiazepin-7-yl]-1,3,4-oxadiazol-2-yl]-2-methyl-propanenitrile]
IC50 [1]: 13500 nM | IC50 [2]: 2020 nM | Emax proliferation (% activation) (primary human T-cells): 205 % activation | EC50 (primary human T-cells): 1520 nM

N[C@H]1CS(=O)(=O)c2ccc(-c3nnc(N4CCOC(F)(F)C4)o3)cc2N(Cc2ccc(-c3nnc(C(F)(F)F)o3)cc2)C1=O [Example 80]
IC50 [1]: 11800 nM | IC50 [2]: 1260 nM | Emax proliferation (% activation) (primary human T-cells): 130 % activation | EC50 (primary human T-cells): 402 nM

N[C@H]1CS(=O)(=O)c2ccc(-c3nnc(C4(CO)CCCO4)o3)cc2N(Cc2ccc(-c3noc(C(F)(F)F)n3)cc2)C1=O (stereo partly drawn) [Example 54, (3R)-3-amino-7-[5-[2-(hydroxymethyl)tetrahydrofuran-2-yl]-1,3,4-oxadiazol-2-yl]-1,1-dioxo-5-[[4-[5-(trifluoromethyl)-1,2,4-oxadiazol-3-yl]phenyl]methyl]-2,3-dihydro-1λ^6,5-benzothiazepin-4-one]
IC50 [1]: 12600 nM | IC50 [2]: 1380 nM | Emax proliferation (% activation) (primary human T-cells): 94 % activation | EC50 (primary human T-cells): 892 nM

CC(N)(c1nnc(-c2ccc3c(c2)N(Cc2ccc(-c4noc(C(F)(F)F)n4)cc2)C(=O)[C@@H](N)CS3(=O)=O)o1)C(F)(F)F (stereo partly drawn) [Example 32, (3R)-3-amino-7-[5-(1-amino-2,2,2-trifluoro-1-methyl-ethyl)-1,3,4-oxadiazol-2-yl]-1,1-dioxo-5-[[4-[5-(trifluoromethyl)-1,2,4-oxadiazol-3-yl]phenyl]methyl]-2,3-dihydro-1λ^6,5-benzothiazepin-4-one]
IC50 [1]: 39400 nM | IC50 [2]: 1740 nM | Emax proliferation (% activation) (primary human T-cells): 153 % activation | EC50 (primary human T-cells): 468 nM

N[C@H]1CS(=O)(=O)c2ccc(-c3nnc(C4(N)CCCCC4)o3)cc2N(Cc2ccc(-c3ccc(C(F)(F)F)cc3)cc2)C1=O [Example 42, (3R)-3-amino-7-[5-(1-aminocyclohexyl)-1,3,4-oxadiazol-2-yl]-1,1-dioxo-5-[[4-[4-(trifluoromethyl)phenyl]phenyl]methyl]-2,3-dihydro-1λ^6,5-benzothiazepin-4-one]
IC50 [1]: 30400 nM | IC50 [2]: 8120 nM | Emax proliferation (% activation) (primary human T-cells): 66 % activation | EC50 (primary human T-cells): 123 nM

CC(C)(C#N)c1nnc(-c2ccc3c(c2)N(Cc2ccc(-c4ncc(OC(F)(F)F)cn4)cc2)C(=O)[C@@H](N)CS3(=O)=O)o1 [Example 117]
IC50 [1]: 1140 nM | IC50 [2]: 1010 nM | Emax proliferation (% activation) (primary human T-cells): 136 % activation | EC50 (primary human T-cells): 174 nM

CC(C)(C#N)c1nnc(-c2ccc3c(c2)N(Cc2ccc(-c4ccc(C5CC5)cn4)cc2)C(=O)[C@@H](N)CS3(=O)=O)o1 [Example 118, 2-[5-[(3R)-3-amino-5-[[4-(5-cyclopropyl-2-pyridyl)phenyl]methyl]-1,1,4-trioxo-2,3-dihydro-1λ^6,5-benzothiazepin-7-yl]-1,3,4-oxadiazol-2-yl]-2-methyl-propanenitrile]
IC50 [1]: 16400 nM | IC50 [2]: 814 nM | Emax proliferation (% activation) (primary human T-cells): 144 % activation | EC50 (primary human T-cells): 1570 nM

COC(F)(c1nnc(-c2ccc3c(c2)N(Cc2ccc(-c4noc(C(F)(F)F)n4)cc2)C(=O)[C@@H](N)CS3(=O)=O)o1)C(F)(F)F (stereo partly drawn) [Example 37, (3R)-3-amino-1,1-dioxo-7-[5-(1,2,2,2-tetrafluoro-1-methoxy-ethyl)-1,3,4-oxadiazol-2-yl]-5-[[4-[5-(trifluoromethyl)-1,2,4-oxadiazol-3-yl]phenyl]methyl]-2,3-dihydro-1λ^6,5-benzothiazepin-4-one]
IC50 [1]: 2000 nM | IC50 [2]: 8830 nM | Emax proliferation (% activation) (primary human T-cells): 173 % activation | EC50 (primary human T-cells): 304 nM

CC(O)(c1nnc(-c2ccc3c(c2)N(Cc2ccc(-c4noc(C(F)(F)F)n4)cc2)C(=O)[C@@H](N)CS3(=O)=O)o1)C(F)(F)F (stereo partly drawn) [Example 96, (3R)-3-amino-1,1-dioxo-7-[5-(2,2,2-trifluoro-1-hydroxy-1-methyl-ethyl)-1,3,4-oxadiazol-2-yl]-5-[[4-[5-(trifluoromethyl)-1,2,4-oxadiazol-3-yl]phenyl]methyl]-2,3-dihydro-1λ^6,5-benzothiazepin-4-one]
IC50 [1]: 24600 nM | IC50 [2]: 3380 nM | Emax proliferation (% activation) (primary human T-cells): 103 % activation | EC50 (primary human T-cells): 174 nM

CC(C)(C#N)c1nnc(-c2ccc3c(c2)N(Cc2ccc(-c4ncc(C(F)(F)F)cn4)cc2)C(=O)[C@@H](N)CS3(=O)=O)o1 [Example 127, 2-[5-[(3R)-3-amino-1,1,4-trioxo-5-[[4-[5-(trifluoromethyl)pyrimidin-2-yl]phenyl]methyl]-2,3-dihydro-1λ^6,5-benzothiazepin-7-yl]-1,3,4-oxadiazol-2-yl]-2-methyl-propanenitrile]
IC50 [1]: > 60000 nM | IC50 [2]: 2450 nM | Emax proliferation (% activation) (primary human T-cells): 130 % activation | EC50 (primary human T-cells): 1980 nM

N[C@H]1CS(=O)(=O)c2ccc(-c3nnc(C4(C(F)F)CNC4)o3)cc2N(Cc2ccc(-c3ccc(C(F)(F)F)cc3)cc2)C1=O [Example 152]
IC50 [1]: > 60000 nM | IC50 [2]: 12200 nM | Emax proliferation (% activation) (primary human T-cells): 90 % activation | EC50 (primary human T-cells): 1440 nM

Cn1nc(C(F)(F)F)cc1-c1ccc(CN2C(=O)[C@@H](N)CS(=O)(=O)c3ccc(-c4nnc(C(C)(C)C#N)o4)cc32)cc1 [Example 107, 2-[5-[(3R)-3-amino-5-[[4-[2-methyl-5-(trifluoromethyl)pyrazol-3-yl]phenyl]methyl]-1,1,4-trioxo-2,3-dihydro-1λ^6,5-benzothiazepin-7-yl]-1,3,4-oxadiazol-2-yl]-2-methyl-propanenitrile]
IC50 [1]: 1300 nM | IC50 [2]: 843 nM | Emax proliferation (% activation) (primary human T-cells): 165 % activation | EC50 (primary human T-cells): 2160 nM

CC(C)(C)c1nnc(-c2ccc3c(c2)N(Cc2ccc(-n4nnc(C(F)(F)F)n4)cc2)C(=O)[C@@H](N)CS3(=O)=O)o1 [Example 90, (3R)-3-amino-7-(5-tert-butyl-1,3,4-oxadiazol-2-yl)-1,1-dioxo-5-[[4-[5-(trifluoromethyl)tetrazol-2-yl]phenyl]methyl]-2,3-dihydro-1λ^6,5-benzothiazepin-4-one]
IC50 [1]: 23900 nM | IC50 [2]: 2140 nM | Emax proliferation (% activation) (primary human T-cells): 152 % activation | EC50 (primary human T-cells): 344 nM

CC(C)(C)c1nnc(-c2ccc3c(c2)N(Cc2ccc(-c4ncc(C(F)(F)F)o4)cc2)C(=O)[C@@H](N)CS3(=O)=O)o1 [Example 93, (3R)-3-amino-7-(5-tert-butyl-1,3,4-oxadiazol-2-yl)-1,1-dioxo-5-[[4-[5-(trifluoromethyl)oxazol-2-yl]phenyl]methyl]-2,3-dihydro-1λ^6,5-benzothiazepin-4-one]
IC50 [1]: 884 nM | IC50 [2]: 485 nM | Emax proliferation (% activation) (primary human T-cells): 104 % activation | EC50 (primary human T-cells): 120 nM

CCC(O)(c1nnc(-c2ccc3c(c2)N(Cc2ccc(-c4noc(C(F)(F)F)n4)cc2)C(=O)[C@@H](N)CS3(=O)=O)o1)C(F)(F)F (stereo partly shown) [Example 95]
IC50 [1]: 19000 nM | IC50 [2]: 2420 nM | Emax proliferation (% activation) (primary human T-cells): 104 % activation | EC50 (primary human T-cells): 1640 nM

N[C@H]1CS(=O)(=O)c2ccc(-c3nnc(C4(N)CCCCC4)o3)cc2N(Cc2ccc(-c3ccc(C(F)(F)F)cn3)cc2)C1=O [Example 41, (3R)-3-amino-7-[5-(1-aminocyclohexyl)-1,3,4-oxadiazol-2-yl]-1,1-dioxo-5-[[4-[5-(trifluoromethyl)-2-pyridyl]phenyl]methyl]-2,3-dihydro-1λ^6,5-benzothiazepin-4-one]
IC50 [1]: 30600 nM | IC50 [2]: 3240 nM | Emax proliferation (% activation) (primary human T-cells): 85 % activation | EC50 (primary human T-cells): 902 nM

CC(C#N)c1nnc(-c2ccc3c(c2)N(Cc2ccc(-c4noc(C(F)(F)F)n4)cc2)C(=O)[C@@H](N)CS3(=O)=O)o1 (stereo partly drawn) [Example 35, 2-[5-[(3R)-3-amino-1,1,4-trioxo-5-[[4-[5-(trifluoromethyl)-1,2,4-oxadiazol-3-yl]phenyl]methyl]-2,3-dihydro-1λ^6,5-benzothiazepin-7-yl]-1,3,4-oxadiazol-2-yl]propanenitrile]
IC50 [1]: 10100 nM | IC50 [2]: 3060 nM | Emax proliferation (% activation) (primary human T-cells): 99 % activation | EC50 (primary human T-cells): 2490 nM

COC(=O)N1CC2CC(c3nnc(-c4ccc5c(c4)N(Cc4ccc(-c6ccc(C(F)(F)F)cc6)nc4)C(=O)[C@@H](N)CS5(=O)=O)o3)(C2)C1 [Example 58, methyl 1-[5-[(3R)-3-amino-1,1,4-trioxo-5-[[6-[4-(trifluoromethyl)phenyl]-3-pyridyl]methyl]-2,3-dihydro-1λ^6,5-benzothiazepin-7-yl]-1,3,4-oxadiazol-2-yl]-3-azabicyclo[3.1.1]heptane-3-carboxylate]
IC50 [1]: 26400 nM | IC50 [2]: 2140 nM | Emax proliferation (% activation) (primary human T-cells): 114 % activation | EC50 (primary human T-cells): 531 nM

Cc1nc(-c2ccc(CN3C(=O)[C@@H](N)CS(=O)(=O)c4ccc(-c5nnc(C(C)(C)C#N)o5)cc43)cc2)ccc1C(F)(F)F [Example 114]
IC50 [1]: > 60000 nM | IC50 [2]: 3720 nM | Emax proliferation (% activation) (primary human T-cells): 78 % activation | EC50 (primary human T-cells): 7420 nM
